The series can be described thus: Solubility of 3α-OH-5β-pregnan-20-one in SBE-β-CD (cyclodextrin) solution. The class given is physicochemical. Here is the method:
When utilizing sulfobutylether-β-cyclodextrin (SBE-3-CD) oral compositions including solubilized or semi solid 3α-OH-5β-pregnan-20-one, it may be challenging to load proper amounts of 3α-OH-5β-pregnan-20-one so as to deliver effective serum levels of 3α-OH-5β-pregnan-20-one due to limitations with respect to 3α-OH-5β-pregnan-20-one solubility in various cyclodextrin solutions including SBE-β-CD (e.g. only ˜6 mg/ml of 3α-OH-5β-pregnan-20-one solubility in 24% w/v non-encapsulated SBE-β-CD solution). The solubilized fraction of 3α-OH-5β-pregnan-20-one began to decline, as observed by precipitation, when 3α-OH-5β-pregnan-20-one concentration was above 8 mg/ml. The amount of 3α-OH-5β-pregnan-20-one in the cyclodextrin solution can only be enabled by about 0.6% w/w loading amount of the composition fill. Moreover, high cyclodextrin amounts required to solubilize 3α-OH-5β-pregnan-20-one also present safety concerns. In some aspects, the compositions and dosage forms of this invention can comprise higher 3α-OH-5β-pregnan-20-one loading amounts than ones formulated in non-encapsulated SBE-β-CD or any cyclodextrin solution composition.

In the case of `CC(=O)[C@H]1CC[C@H]2[C@@H]3CC[C@@H]4C[C@H](O)CC[C@]4(C)[C@H]3CC[C@]12C` [3α-OH-5β-pregnan-20-one], the “3α-OH-5β-pregnan-20-one concentration above which the solubilized fraction began to decline, as observed by precipitation” value (cyclodextrin (SBE-β-CD) solution) is listed as “above 8 mg/ml”. The “loading amount of the composition fill enabled in the cyclodextrin solution” value (cyclodextrin solution) is listed as “about 0.6 % w/w”. Besides, the 3α-OH-5β-pregnan-20-one solubility (in 24% w/v non-encapsulated SBE-β-CD solution) is roughly 6000 µg/mL.

For the origin of these results see patent publication US20230390304A1, “Method and Composition for Treating Epilepsy” (Lipocine Inc., priority 2022, published 2023).
